Values joined by “and” are separate entries in the source; they are usually repeats but may differ in a detail not shown here. Equal values may be shown once.
System: previously treated B-cell malignancies (CLL/SLL, WM, MCL, MZL)
Assay: Phase 2 (NCT04116437): investigator-assessed efficacy (ORR, DCR, DOR, PFS, OS)
Assay type: in vivo, human
Settings: for Months to BOR, median: patients who responded
Experimental: PFS and patient-reported outcomes were assessed as secondary efficacy endpoints.
The study's secondary endpoints were: • ORR, defined as the proportion of patients achieving a best overall response (BOR) of CR, CRi, nodular partial response, partial response (PR), or partial response with lymphocytosis (PR-L) in patients with CLL; CR or PR in patients with SLL, MCL, or MZL; and CR, very good partial response, PR, or minor response (MR) in patients with WM before initiation of subsequent antineoplastic therapy. • DCR, defined as the proportion of patients who attain a BOR of stable disease or better before initiation of subsequent antineoplastic therapy. • Duration of response (DOR), defined as time from […] to date of first documented disease progression or death, whichever occurs first. • PFS, defined as time from first dose date to date of first documented disease progression or death, whichever occurs first. • Time to first response, defined as time from first dose to date of first qualifying response. For example, for a patient who attained a PR-L followed by PR for subsequent assessments, time to first response was the time from first dose to date of first PR-L. • Time to BOR, defined as time from first dose to date of best of overall response.
A patient's BOR was the best response recorded throughout the study prior to initiation of any new anticancer therapy and data cutoff. In some cases, the BOR could only be stable disease (e.g., if the patient was in CR at study entry) because patients were not required to progress prior to entering the study. • ORR was the proportion of patients who attained a BOR of: • PR-L or better (CR, CRi, nodular partial response, PR, PR-L) in patients with CLL; • PR or better (CR, PR) in patients with SLL, MCL, and MZL; • MR or better (CR, very good partial response, PR, MR) in patients with WM.
Per the Safety Analysis Set, patients without postbaseline disease assessment were considered non-responders. DCR was summarized with 95% exact confidence intervals. A sensitivity analysis of DCR was conducted in patients in the Efficacy Evaluable Set; patients who died or discontinued study prior to their first disease assessment due to adverse events were classified as not achieving disease control. An additional sensitivity analysis of DCR excluded patients with low disease burden, as defined above.
The PFS distribution and its related metrics such as median PFS and landmark rates were estimated using the Kaplan-Meier method with censoring rules as defined in Table 29.
Zanubrutinib capsules were taken orally with water and with or without food. Imaging and laboratory assessments at study entry were considered baseline for response assessment; patients were not required to meet criteria for initiation of treatment at study entry.

[1] = Cohort 1 (prior ibrutinib), n = 57
[2] = Cohort 2 (prior acalabrutinib + ibrutinib), n = 7
[3] = Efficacy Evaluable Set, 68 patients

C=CC(=O)N1CCC([C@@H]2CCNc3c(C(N)=O)c(-c4ccc(Oc5ccccc5)cc4)nn32)CC1 [zanubrutinib, (S)-7-(1-acryloylpiperidin-4-yl)-2-(4-phenoxyphenyl)-4,5,6,7-tetrahydropyrazolo[1,5-a]pyrimidine-3-carboxamide]
DCR (160 mg bid group): 95.0%
ORR (160 mg bid group): 70.0%
DCR (320 mg qd group): 91.7%
ORR (320 mg qd group): 54.2%
BOR PD (Cohort 1): 1 (1.8) n (%)
BOR PR-L or better (Cohort 1): 36 (63.2) n (%)
BOR SD (Cohort 1): 18 (31.6) n (%)
Months to first OR, median (Cohort 1): 2.92 months
DCR (SD or better) [1]: (94.7, 85.4-98.9) %
ORR (better than SD) [1]: (63.2, 49.3-75.6) %
Months to BOR, median (Cohort 1): 5.5 months
BOR PD (Cohort 2): 1 (14.3) n (%)
BOR PR-L or better (Cohort 2): 5 (71.4) n (%)
BOR SD (Cohort 2): 1 (14.3) n (%)
Months to first OR, median (Cohort 2): 3.02 months
DCR (SD or better) [2]: (85.7, 42.1-99.6) %
ORR (better than SD) [2]: (71.4, 29.0-96.3) %
Months to BOR, median (Cohort 2): 7.9 months
BOR better than stable disease (ORR) [3]: 67.6%
BOR of PR [3]: 66.2%
BOR of stable disease or better (DCR) [3]: 95.6%
BOR PD (Total): 3.1 n (%) and 2 (3.1) n (%)
BOR PR-L or better (Total): 41 (64.1) n (%)
BOR SD (Total): 29.7 n (%) and 19 (29.7) n (%)
Months to first OR, median (Total): 2.96 months
Months to BOR, median (Total): 5.6 months
Median DOR (additional analysis): not reached
Median PFS (additional analysis): not reached
18-month event-free PFS rate (additional analysis, 67 patients): 83.8%
Chance of being alive after 24 months (all patients): 89.3%
Estimated probability of responding for at least 12 months (all patients): 91.8%
Median DOR (all patients): not reached
ORR (excluding eight patients ineligible for PR due to low baseline disease burden): 73.2%
12-month event-free DOR rate (in vivo): 95.0%
Median time to first response (better than SD) (in vivo): 3.0 months
Median PFS (overall): not reached
PFS event-free rate at 18 months (overall (clinical study report cut-off)): 80.4%
Estimated probability of responding for at least 12 months (patients with WM): 100%
PFS event-free rate at 18 months (patients with WM): 100%
BOR better than stable disease (patients with WM, 11 patients): 90.9%
BOR of stable disease or better (patients with WM, 11 patients): 100%
Very good partial response (patients with WM, 11 patients): 45.5%

— patent US11911386B2, “Methods of treating B-cell proliferative disorder” (BeiGene Switzerland GmbH, priority 2022, dated 2024)
